For orientation: IC50 means the concentration that inhibits the measured activity by half.

One compound from patent publication US11160767B2, “4,4′-trans-dihydroxystilbene for use in treating cancer” (The George Washington University, a Congressionally …, priority 2017, dated 2021) can be followed below.

In one data set the test system is HCT116. Briefly: In vitro cytotoxicity (SRB assay), HCT116. It counts as cell-based. To be noted: Homo sapiens, HCT-116, 72 hours. The method, then: Cell lines and cell culture. HCT116, U205, PANC-1, MDA-231 cell lines were purchased from the American Type Culture Collection (Rockville, Md., US). Cells were cultured in the DMEM medium (Lonza, Basel, Switzerland) containing 10% fetal bovine serum (Gibco, Grand Island, N.Y., US), 100 Units/ml penicillin, 100 Units/mL streptomycin, […] L-glutamine (Gibco, Grand Island, N.Y., US) at 37° C. in a humidified atmosphere with 5% CO2.
In vitro cytotoxicity assays. […] SRB assay (Vichai and Kirtikara, 2006) was performed and the absorbance at 510 nm was read with a plate reader. The proliferation rate was calculated according to the Manufacturer's instruction. The IC50 value for each compound was determined from dose-effect relationship using the CompuSyn software (version 1.0.1; CompuSyn, Inc, Paramus, N.J.) (Chou, 2006). Cell proliferating doubling time was monitored over a period of 72 hours.

The next data set concerns HCT116 cells. Briefly: Clonogenic colony formation assay. The class given is cell-based, human. Conditions: 0 to 50 μM. The method, then: To confirm the cell killing effect of DHS, a clonogenic colony formation assay was conducted. […] The effect of DHS on growth of cancer cell lines was analyzed using The NCI Development Therapeutics Program (DTP).
Data set [1] deals with T1, truncated-RRM2 protein (deletion of GLU147 to ILE166) (Homo sapiens, UniProt P31350, DEL147-166).
T1 construct: expressed in transfected cells; host or cells: HCT116
Briefly: Thermal shift assay, truncated RRM2. The class given is cell-based. To be noted: HCT116 cells. The text has this: To verify the DHS binding site on RRM2, a RRM2 construct with a deletion of GLU147 to ILE166 was generated. […] Since Hu is also known to interact with RRM2 protein, the effect of DHS on Hu binding to RRM2 was investigated using a cellular thermal shift assay with KB-Hu (an Hu resistant oral cancer cell line).

For a further data set, the target named is T2, RRM2 (Homo sapiens, UniProt P31350).
T2 construct: endogenous in cells; host or cells: HCT116
T2 sequence (P31350 1-389): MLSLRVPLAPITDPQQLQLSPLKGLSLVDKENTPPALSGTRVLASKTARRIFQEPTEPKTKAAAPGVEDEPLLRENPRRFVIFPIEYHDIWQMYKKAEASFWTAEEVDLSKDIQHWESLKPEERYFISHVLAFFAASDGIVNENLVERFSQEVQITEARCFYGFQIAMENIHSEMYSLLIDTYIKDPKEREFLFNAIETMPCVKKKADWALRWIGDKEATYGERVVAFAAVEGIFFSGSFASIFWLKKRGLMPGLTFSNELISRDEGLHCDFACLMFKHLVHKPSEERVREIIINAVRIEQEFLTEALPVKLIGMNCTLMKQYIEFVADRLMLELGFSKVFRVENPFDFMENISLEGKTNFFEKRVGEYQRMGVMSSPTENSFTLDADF
As to the kind of experiment: Ubiquitination assay. Conditions: HCT116 cells, with MG-132 pre-treatment. The class given is cell-based. The protocol:
It was next investigated whether treatment with DHS leads to reduced levels of RRM2 through the proteasome degradation pathway. […] To confirm whether degradation of RRM1 is dependent on RRM2, RRM1 or RRM2 expression was knocked down by treatment with siRNAs and resultant protein amounts were detected. […] Next, a ubiquitination assay with MG-132 pre-treatment was performed to determine whether a ubiquitination reaction is involved in DHS-mediated RRM2 degradation. […] According to the literature, Cyclin F is the E3 ligase that ubiquitinates RRM2 (D'Angiolella et al., 2012). Thus, the amount of RRM2 in cells was determined after knockdown of Cyclin F by siRNA. […] Cell viability after DHS exposure was also investigated in cells in which either RRM2 or Cyclin F expression was knocked down by siRNA.

The conditions of data set [2]: mouse, in vivo.
Procedure: Xenograft mouse models. […] In xenograft studies, HCT116 (3×10^6 cells) and IGROV3/CP2 (5×10^6 cells) suspended in 100 μl of phosphate buffered saline (PBS, pH 7.4) were injected subcutaneously into the lower flank of the mice. Testing compounds were dissolved in DMSO/Tween 80/saline (10:10:80; v/v/v) buffer and were used to treat animals through intraperitoneal (i.p.) injection. […] The body weight of animals was measured throughout the study. Tumor diameters were measured with digital calipers, and the tumor volume in mm^3 was calculated by the formula: Volume=(width)^2×length/2.
HCT116 cells (5×10^6) were injected subcutaneously in nude mice and grown to approximately 100 mm^3 in volume. […] To study the preclinical toxicity of DHS, samples of hearts, livers, spleens, lung, and kidneys were collected on Day 38 and sections were stained for histological examination.

T1 sequence (P31350 with tags, fused parts or gaps DEL147-166): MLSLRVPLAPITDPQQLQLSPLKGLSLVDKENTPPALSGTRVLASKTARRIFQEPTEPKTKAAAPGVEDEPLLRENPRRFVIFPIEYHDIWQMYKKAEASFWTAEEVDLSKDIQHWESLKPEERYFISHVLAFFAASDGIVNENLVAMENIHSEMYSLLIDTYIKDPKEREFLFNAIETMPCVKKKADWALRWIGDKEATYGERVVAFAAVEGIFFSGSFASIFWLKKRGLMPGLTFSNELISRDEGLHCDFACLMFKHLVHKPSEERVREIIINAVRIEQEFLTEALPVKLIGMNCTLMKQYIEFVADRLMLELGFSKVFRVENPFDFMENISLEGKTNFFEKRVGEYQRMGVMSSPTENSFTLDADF

Regarding `Oc1ccc(/C=C/c2ccc(O)cc2)cc1` [DHS, 4,4′-trans-dihydroxystilbene], half-maximal inhibition with HCT116 (IC50) required 2300 ± 780 nM. In the data set on HCT116 cells, the Colony formation entry is reported as “stronger suppression effect on HCT116 cell colony formation than resveratrol”. For the same compound, the “Thermal stability of truncated RRM2” value in data set [1] is listed as “not able to maintain thermal stability of the truncated-RRM2 protein”. Also, the “Ubiquitinated RRM2” value on RRM2 is given as “ubiquitinated RRM2 was increased by DHS treatment”. In addition, in data set [2], the “Histology, hearts, livers, lung, and kidneys” value is on record as “no obvious damage”; the “Histology, spleens” value is reported as “Minor damage”.
